# Data reported in patent US10722480B2, “Agent for controlling cells constituting cancer microenvironment or inflammatory microenvironment” (The University of Tokyo, priority 2015, dated 2020).
# What was measured:
# [1] = tested on: B16 melanoma cells; test: Combined use with anti-PD-1 antibody, B16 tumor-bearing model; assay type: in vivo, mouse; settings: DSF in feed from Day 4, anti-PD-1 antibody 0.2 mg i.p. x4
# Method: (§1) To provide an example of combined use of an anticancer drug and disulfiram (DSF), the effect of combined use of an anti-PD-1 antibody, which is an anticancer drug targeting an immune checkpoint molecule, and DSF was studied using an LLC tumor-bearing model and a B16 tumor-bearing model. The B16 tumor-bearing model was prepared by transplanting 5×10^5 B16 melanoma cells to the right abdomen of each of wild-type C57BL/6 mice. Preparation of the LLC tumor-bearing model was carried out in the same manner as in the above-described section 3. A feed supplemented with DSF was provided in the same manner as in the above-described section 3.
# (§2) The day of the transplantation of the tumor cells to the mice was defined as Day 0. From Day 4, the mice were fed with the feed supplemented with DSF or a control feed every day during the experimental period. An anti-PD-1 antibody (J43, manufactured by BioXcell) was intraperitoneally administered once at a dose of 0.2 mg on each of Day 5, Day 8, Day 14, and Day 18 (four times in total). To provide a control for the antibody administration, PBS was intraperitoneally administered. The tumor size was measured using a caliper twice a week, and the tumor volume was calculated.
# [2] = biological target: T1, FROUNT-CCR5 interaction (Homo sapiens, UniProt Q9BW27); test: HTRF binding inhibition assay, FROUNT-CCR5 interaction; settings: result in words
# T1 construct: made in house
# T1 sequence (Q9BW27 500-656): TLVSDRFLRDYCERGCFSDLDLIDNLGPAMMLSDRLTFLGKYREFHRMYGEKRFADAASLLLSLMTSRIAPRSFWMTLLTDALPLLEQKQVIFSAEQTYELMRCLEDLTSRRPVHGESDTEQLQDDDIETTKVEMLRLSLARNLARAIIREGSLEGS
# Method: For the screening, a compound library containing 131,200 kinds of compounds dissolved in DMSO at a concentration of 10 mM or 2 mM (obtained from Open Innovation Center for Drug Discovery, the University of Tokyo) was used. The HTRF assay was carried out using a 384-well low-dose white microplate (Corning Coaster; catalog number 3676). In each well, 4 μL of a solution of 20 nM GST fusion FROUNT protein (a recombinant polypeptide prepared by fusing GST to aa 500-656 of SEQ ID NO:2), and DMSO or test compounds were mixed with a binding buffer (10 mM HEPES [pH 7.4], 0.2 M potassium fluoride, 10 mM NaCl, 0.1% Tween 20, and 0.5% bovine serum albumin [BSA]), and the plate was incubated at room temperature for 30 minutes. […]. After incubation at room temperature for 20 hours, the HTRF signal was measured at emission wavelengths of 620 nm and 665 nm using a multilabel counter EnVision (PerkinElmer).
# By the same HTRF assay as described above, the abilities of disulfiram to inhibit the FROUNT-CCR2 interaction or the FROUNT-CCR5 interaction were investigated. As the CCR5 pro-C peptide, the 16 residues […] (SEQ ID NO:4) in the C-terminal region of CCR5 was used. As a control, the p53-MDM2 interaction (which is inhibited by an MDM-2-specific inhibitor Nutlin), which is also a helix peptide-protein interaction like the interaction between FROUNT and CCR2 or CCR5 but is not related thereto, was used.
# [3] = tested on: LLC tumor; test: Combined use with anti-PD-1 antibody, LLC tumor-bearing model; assay type: in vivo, mouse; settings: DSF in feed from Day 4, anti-PD-1 antibody 0.2 mg i.p. x4
# Method: as §1, §2
# [4] = tested on: infiltrating cells in the peritoneum (macrophages, neutrophils); test: In vivo chemotaxis assay (thioglycolate peritonitis); design: species or system mouse; settings: wild-type mice
# Method: Peritonitis was induced by intraperitoneal administration of 2 mL of 4% thioglycolate medium (Difco) to each of FNT^flox/flox mice and FNT-cKO mice. Infiltrating cells in the peritoneum were collected by injecting 5 mL of ice-cold PBS into the abdominal cavity and giving a gentle massage. The collected cells was washed with PBS containing 0.1% FBS, and then subjected to flow cytometry analysis to investigate the cell number and the cell populations. The same treatment as in the above-described section 8 was carried out on wild-type mice to induce peritonitis, and infiltrating cells in the peritoneum were collected. After washing the collected cells, flow cytometry analysis was carried out to investigate the cell number and the cell populations. For evaluation of disulfiram, disulfiram was dissolved in DMSO, and then diluted in 2% Tween 80-containing physiological saline to each concentration shown in the figure. Each resulting disulfiram solution was administered to mice 1 day before and 30 minutes before the administration of thioglycolate.
# [5] = tested on: macrophages in tumor sites; test: Macrophage accumulation in tumor sites (lung metastasis model); assay type: in vivo, mouse; settings: wild-type mice, vs solvent
# Method: Lung cells of the lung metastasis model of wild-type mice described in the section 4 above or lung cells of the lung metastasis model of FNT-cKO mice and FNT^flox/flox mice described in the section 7(2) above were obtained from the right lower lobe by digestion with collagenase and DNase. The cells were washed with PBS supplemented with 2% fetal bovine serum, resuspended, and filtered through a 70-μm strainer. The Fc receptor was blocked by incubation with an anti-mouse CD16/32 antibody (BD biosciences), and thereafter the cells were stained with a fluorescently labeled antibody. Anti-mouse CD11b-Brilliant Violet 510, anti-mouse Ly6C-APC-Cy7, and anti-mouse Ly6G-Alexa Fluor 700 were purchased from Biolegend. The stained cells were analyzed using the Gallios flow cytometer (Beckman coulter). Each mouse was perfused with PBS, and the left lung was isolated. Optimal Cutting Temperature Compound (OCT) (Sakura Finetek) was injected from the trachea to embed the lung in OCT, and the lung was then frozen in liquid nitrogen. Fresh frozen sections with a thickness of 8 μm were prepared, and fixed with 4% paraformaldehyde-PBS. […] Fluorescence Images were obtained with an SP5 confocal microscope (Leica Microsystems).
# [6] = tested on: B16F10 melanoma cells; test: LDH cytotoxicity assay, B16F10 melanoma cells; assay type: cell-based; settings: LDH release, 72 hours
# Method: The cytotoxicity of inhibitors was tested by using LDH Cytotoxicity Detection Kit (TaKaRa) according to the manufacturer's instructions. Briefly, tumor cells were cultured in the presence or absence of an agent (disulfiram or 5FU) for 72 hours, and the culture supernatant was then collected and tested for the concentration of lactate dehydrogenase released from damaged cells. For measurement of cell proliferation, cells were incubated in a plate well together with an inhibitor for 48 hours. During the last 30 minutes, WST-1 (Dojindo Laboratories) was added to the culture liquid, and the absorbance of each well was measured at 450 nm versus 650 nm reference using EnVision (PerkinElmer) to detect the formazan level.
smiles,measurement,setting,value
"CCN(CC)C(=S)SSC(=S)N(CC)CC [DSF, disulfiram]",inhibitory effect on cancer hyperplasia (tumor volume),[1],not observed at a significant level
same,inhibition of FROUNT-CCR5 interaction,[2],selectively inhibited
same,hyperplasia of cancer cells (tumor volume),[3],inhibited
same,infiltration of macrophages into peritoneal inflammatory sites,[4],reduced
same,infiltration of neutrophils into peritoneal inflammatory sites,[4],not influenced
same,accumulation of macrophages in tumor sites,[5],reduced
same,cytotoxic activity on B16F10 melanoma cells,[6],did not show any action
